Patent US20250346600A1, “TRICYCLIC DERIVATIVES AND RELATED USES” (MOMA Therapeutics, Inc., priority 2023, published 2025)
Read-outs that look alike come from different tables or passages of the source.

What was measured:
[1] = target: T1, Full length WRN protein (aa 2-1432) (Homo sapiens (Human), UniProt Q14191); test: WRN ATPase ADP-Glo biochemical assay, Assay Format B (100 μM ATP); conditions: 0.25 nM WRN, 100 nM C6.18 ssDNA, 60 min preincubation, read-out: ATPase ADPGlo AC50 (uM)- Assay Format B
[2] = target: T1, Full length WRN protein (aa 2-1432); test: WRN ATPase ADP-Glo biochemical assay, Assay Format A (10 μM ATP); conditions: 0.25 nM WRN, 100 nM C6.18 ssDNA, 30 min preincubation, read-out: ATPase ADPGlo AC50 (uM)- Assay Format A
Method in brief: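 ADP-Glo luminescence measured hydrolysis of ATP by purified, baculovirus-expressed N-terminally tagged full-length WRN. Enzyme (0.5 nM) was preincubated 30 min with compound, then 200 nM ssDNA C6.18 plus 20 μM ATP were added (pre-mix levels) for 30 min at RT. IC50s come from four-parameter fits, geometric mean of at least two trials.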

[3] = system: HCT116 cells; test: HCT116 (MSI) 7 day viability, CellTiter Glo; assay type: cell-based; conditions: 7 days, read-out: HCT116 (MSI) Viability 7 Day Abs AC50
Method in brief: (§1)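 10 mM DMSO stocks serially diluted 3-fold, 10 steps; cells added (HCT116 50/well, HT29 500/well); 7 d, 37 °C, 5% CO2; CellTiter Glo 20 min RT; luminescence.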

[4] = system: HT29 cells; test: HT29 (MSS) 7 day viability, CellTiter Glo; assay type: cell-based; conditions: 7 days, read-out: HT29 (MSS) Viability 7 Day CTGAbs AC50
Method in brief: as §1

T1 sequence (Q14191 2-1432): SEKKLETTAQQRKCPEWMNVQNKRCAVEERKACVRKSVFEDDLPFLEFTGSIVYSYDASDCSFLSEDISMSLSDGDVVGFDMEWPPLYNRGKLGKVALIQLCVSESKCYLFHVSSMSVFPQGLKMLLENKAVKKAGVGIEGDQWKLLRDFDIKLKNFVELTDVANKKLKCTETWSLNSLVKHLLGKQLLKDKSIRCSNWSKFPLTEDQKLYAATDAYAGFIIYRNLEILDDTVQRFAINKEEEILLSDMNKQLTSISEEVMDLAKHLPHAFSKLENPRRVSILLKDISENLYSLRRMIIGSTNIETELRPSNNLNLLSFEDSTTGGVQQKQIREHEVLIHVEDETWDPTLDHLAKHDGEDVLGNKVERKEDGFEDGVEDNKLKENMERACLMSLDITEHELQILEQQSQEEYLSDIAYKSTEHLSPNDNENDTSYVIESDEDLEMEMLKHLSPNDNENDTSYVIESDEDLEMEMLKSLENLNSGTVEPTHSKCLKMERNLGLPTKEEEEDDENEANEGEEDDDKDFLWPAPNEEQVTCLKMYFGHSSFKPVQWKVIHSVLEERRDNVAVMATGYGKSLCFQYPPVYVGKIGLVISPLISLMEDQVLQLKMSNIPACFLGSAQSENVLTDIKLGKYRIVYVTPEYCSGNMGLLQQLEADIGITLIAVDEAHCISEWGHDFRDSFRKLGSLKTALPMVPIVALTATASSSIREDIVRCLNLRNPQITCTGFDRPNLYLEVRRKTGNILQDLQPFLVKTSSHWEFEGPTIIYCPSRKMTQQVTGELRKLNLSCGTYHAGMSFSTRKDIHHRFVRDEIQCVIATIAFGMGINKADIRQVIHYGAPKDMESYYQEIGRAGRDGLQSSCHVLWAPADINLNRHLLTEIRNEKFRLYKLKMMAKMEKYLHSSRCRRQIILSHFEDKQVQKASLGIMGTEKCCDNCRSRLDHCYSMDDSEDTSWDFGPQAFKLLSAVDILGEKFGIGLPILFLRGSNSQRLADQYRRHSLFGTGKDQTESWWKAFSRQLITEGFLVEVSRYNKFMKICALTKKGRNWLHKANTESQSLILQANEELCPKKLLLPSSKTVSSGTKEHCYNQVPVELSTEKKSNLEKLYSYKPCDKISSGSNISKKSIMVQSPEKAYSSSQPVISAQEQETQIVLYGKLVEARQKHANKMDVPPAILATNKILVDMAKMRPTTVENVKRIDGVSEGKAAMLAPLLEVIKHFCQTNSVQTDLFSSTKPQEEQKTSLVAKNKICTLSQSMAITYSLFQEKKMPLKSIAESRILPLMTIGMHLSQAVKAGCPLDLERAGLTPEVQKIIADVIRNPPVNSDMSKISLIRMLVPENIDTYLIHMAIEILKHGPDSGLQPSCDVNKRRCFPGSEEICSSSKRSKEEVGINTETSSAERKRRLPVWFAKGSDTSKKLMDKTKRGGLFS

AC50 [1] [µM] | AC50 [2] [µM] | SMILES | AC50 [3] [µM] | AC50 [4] [µM] | AC50 ([3]; Homo sapiens, HCT-116, 168 h) [µM] | AC50 ([4]; Homo sapiens, HT-29, 168 h) [µM]
0.005 to 0.015 | < 0.0015 | C=CC(=O)N1CC(C)c2nn(-c3ccc(C4CC4)cc3O)c3c2C(C1)N(C(=O)c1cnc(C(F)(F)F)cc1N)CC3 (centres unmarked) [Compound 195, 1-(5-(4-amino-6-(trifluoromethyl)nicotinoyl)-2-(4-cyclopropyl-2-hydroxyphenyl)-9-methyl-2,3,4,5,5a,6,8,9-octahydro-7H-1,2,5,7-tetraazabenzo[cd]azulen-7-yl)prop-2-en-1-one] | 0.001 to 0.1 | > 3 |  | 
0.0015 to 0.005 | < 0.0015 | C=CC(=O)N1CC(OCC2=CCOCC2)c2nn(-c3ccc(C4CCC4)cc3)c3c2C(C1)N(C(=O)c1cnc(C(F)(F)F)cc1N)CC3 (centres unmarked) [Compound 260, 1-(5-(4-amino-6-(trifluoromethyl)nicotinoyl)-2-(4-cyclobutylphenyl)-9-((3,6-dihydro-2H-pyran-4-yl)methoxy)-2,3,4,5,5a,6,8,9-octahydro-7H-1,2,5,7-tetraazabenzo[cd]azulen-7-yl)prop-2-en-1-one] |  |  | 0.001 to 0.1 | > 3
0.005 to 0.015 | < 0.0015 | C=CC(=O)N1CCc2nn(-c3ccc(C4CCC4)cc3O)c3c2C(C1)N(C(=O)c1cnc(C(F)(F)F)cc1O)CC3 (centres unmarked) [Compound 149, 1-(2-(4-cyclobutyl-2-hydroxyphenyl)-5-(4-hydroxy-6-(trifluoromethyl)nicotinoyl)-2,3,4,5,5a,6,8,9-octahydro-7H-1,2,5,7-tetraazabenzo[cd]azulen-7-yl)prop-2-en-1-one] |  |  | 0.25 to 0.5 | > 3
0.0015 to 0.005 | < 0.0015 | C=CC(=O)N1CCc2nn(-c3ccc(C4CC4)cc3O)c3c2C(C1)N(C(=O)c1nnc(C(F)(F)F)cc1N)CC3 (centres unmarked) [Compound 248, 1-(5-(4-amino-6-(trifluoromethyl)pyridazine-3-carbonyl)-2-(4-cyclopropyl-2-hydroxyphenyl)-2,3,4,5,5a,6,8,9-octahydro-7H-1,2,5,7-tetraazabenzo[cd]azulen-7-yl)prop-2-en-1-one] |  |  | 0.001 to 0.1 | > 3

Continued, compound first:

SMILES | AC50 [1] [µM] | AC50 [2] [µM] | AC50 [3] [µM] | AC50 [4] [µM] | AC50 ([3]; Homo sapiens, HCT-116, 168 h) [µM] | AC50 ([4]; Homo sapiens, HT-29, 168 h) [µM]
C=CC(=O)N1CCc2nn(-c3ccc(C4CCC4)cc3O)c3c2C(C1)N(C(=O)c1ncc(C(F)(F)F)cc1N)CC3 (centres unmarked) [Compound 142, 1-(5-(3-amino-5-(trifluoromethyl)picolinoyl)-2-(4-cyclobutyl-2-hydroxyphenyl)-2,3,4,5,5a,6,8,9-octahydro-7H-1,2,5,7-tetraazabenzo[cd]azulen-7-yl)prop-2-en-1-one] | 0.015 to 0.055 | < 0.0015 |  |  | 0.001 to 0.1 | > 3
C=CC(=O)N1CCc2nn(-c3ccc(C4CC4)cc3)c3c2C(C1)N(C(=O)c1cnc2c(C)nn(C)c2c1)CC3 (centres unmarked) [Compound 110, 1-(2-(4-cyclopropylphenyl)-5-(1,3-dimethyl-1H-pyrazolo[4,3-b]pyridine-6-carbonyl)-2,3,4,5,5a,6,8,9-octahydro-7H-1,2,5,7-tetraazabenzo[cd]azulen-7-yl)prop-2-en-1-one] | > 0.055 | 0.005 to 0.015 |  |  | 0.1 to 0.25 | > 3
C=CC(=O)N1CCOc2nn(-c3ccc(C4CC4)cc3C)c3c2C(C1)N(C(=O)c1ccc(Br)c2[nH]cnc12)CC3 (centres unmarked) [Compound 103, 1-(5-(7-bromo-1H-benzo[d]imidazole-4-carbonyl)-2-(4-cyclopropyl-2-methylphenyl)-2,3,4,5,5a,6,8,9-octahydro-7H-10-oxa-1,2,5,7-tetraazacycloocta[cd]inden-7-yl)prop-2-en-1-one] | 0.015 to 0.055 | < 0.0015 |  |  | 0.25 to 0.5 | > 3
C=CC(=O)N1CCc2nn(-c3ccc(C4CCC4(F)F)cc3O)c3c2C(C1)N(C(=O)c1ccc(Br)c2[nH]cnc12)CC3 (centres unmarked) [Compound 6, 1-(5-(7-bromo-1H-benzo[d]imidazole-4-carbonyl)-2-(4-(2,2-difluorocyclobutyl)-2-hydroxyphenyl)-2,3,4,5,5a,6,8,9-octahydro-7H-1,2,5,7-tetraazabenzo[cd]azulen-7-yl)prop-2-en-1-one] | 0.015 to 0.055 | 0.0015 to 0.005 |  |  | 0.001 to 0.1 | > 3
